Patent publication US9481648B2, “Kinase inhibitors” (Respivert Limited, priority 2013, dated 2016)
Where two headings read alike, the source gives them in different places.

Key:
[1] = tested on: endotoxin (LPS)-induced uveitis in Lewis rats; assay: Endotoxin-induced uveitis in rats (in vivo vi); design: species or system rat
Experimental: Male, Lewis rats (6-8 weeks old, Charles River UK Limited) are housed in cages of 3 at 19-21° C. with a 12 h light/dark cycle (07:00/19:00) and fed a standard diet of rodent chow and water ad libitum. Non-fasted rats are weighed, individually identified on the tail with a permanent marker, and receive a single intravitreal administration into the right vitreous humor (5 μL dose volume) of 100 ng/animal of LPS (Escherichia coli 0111:B4 prepared in PBS, Sigma Aldrich, UK) using a 32-gauge needle. Untreated rats are injected with PBS. […] Following euthanasia, the right eye of each animal is enucleated and dissected into front (anterior) and back (posterior) sections around the lens. Each section is weighed and homogenised in 500 μL of sterile phosphate buffered saline followed by 20 minutes centrifugation at 12000 rpm at 4° C.

GSK 3α = GSK 3α (Homo sapiens (Human), UniProt P49840); assay: GSK 3α enzyme inhibition (FRET, Z-LYTE; Method 2); format: biochemical; conditions: read-out: IC50 Values for Enzyme Inhibition GSK3α
Summary of the method: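 Z-LYTE FRET assay: GSK3-α (500 ng/mL stock) preincubated 105 min at RT with compound at 10, 1, 0.1 or 0.01 μg/mL stock. FRET peptide (8 μM stock) and ATP (40 μM stock) were then added for 1 h, followed by protease development for 1 h. Phosphorylation was read as coumarin/fluorescein emission ratio.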

c-Src = c-Src (Homo sapiens (Human), UniProt P12931); assay: c-Src enzyme inhibition (FRET, Z-LYTE); format: biochemical
Summary of the method: (§1)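 Syk or c-Src enzyme (3000 or 2000 ng/mL solutions) was preincubated 2 h at RT with compound solutions at 1, 0.1, 0.01 or 0.001 µg/mL. Z-LYTE FRET peptide (8 µM solution) and ATP (800 µM solution for c-Src, 60 µM for Syk) were then added for 1 h, followed by protease development for 1 h. Phosphorylation was read as the coumarin/fluorescein emission ratio.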

p38 MAPKα (MAPK14) = p38 MAPKα (MAPK14) (Homo sapiens (Human), UniProt Q16539); assay: p38 MAPKα enzyme inhibition (FRET, Z-LYTE; Method 2); format: biochemical
[2] = tested on: β-catenin in d-U937 cells; assay: Accumulation of β catenin in d-U937 cells (assay m); format: cell-based, human
Summary of the method: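 U937 cells were differentiated with PMA (100 ng/mL) for 48–72 hr, then treated with compound or vehicle for 18 hr. After formaldehyde fixation, β-catenin was detected with a primary antibody and an HRP secondary using TMB (OD450–655). Signal was normalised to crystal violet cell staining (OD595).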

Syk = Syk (Homo sapiens (Human), UniProt P43405); assay: Syk enzyme inhibition (FRET, Z-LYTE); format: biochemical
Summary of the method: as §1

non-mutant kinases = format: binding; conditions: for number of individual kinase hits, S(1): non-mutant kinases with % Ctrl <1
Experimental: These assays may be conducted by DiscoverX (formerly Ambit; San Diego, Calif.). The percentage inhibition produced by incubation with a test compound may be calculated relative to the non-inhibited control.

[3] = Table 7a, eyes of LPS-stimulated rats, 1 mg/mL
[4] = Table 7c, eyes of LPS-stimulated rats, 1 mg/mL

p38 MAPKα (MAPK14), sequence (Q16539 whole entry): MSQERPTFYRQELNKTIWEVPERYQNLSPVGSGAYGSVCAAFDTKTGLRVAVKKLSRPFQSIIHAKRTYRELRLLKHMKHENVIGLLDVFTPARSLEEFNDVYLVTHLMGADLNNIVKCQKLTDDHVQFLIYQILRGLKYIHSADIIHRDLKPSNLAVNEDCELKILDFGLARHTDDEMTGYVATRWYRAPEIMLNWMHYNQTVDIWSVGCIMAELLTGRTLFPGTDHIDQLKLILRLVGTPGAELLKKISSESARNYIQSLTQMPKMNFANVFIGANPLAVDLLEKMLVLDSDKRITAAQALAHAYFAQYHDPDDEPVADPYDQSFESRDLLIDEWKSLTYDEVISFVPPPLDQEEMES
c-Src, sequence (P12931 whole entry, looked up): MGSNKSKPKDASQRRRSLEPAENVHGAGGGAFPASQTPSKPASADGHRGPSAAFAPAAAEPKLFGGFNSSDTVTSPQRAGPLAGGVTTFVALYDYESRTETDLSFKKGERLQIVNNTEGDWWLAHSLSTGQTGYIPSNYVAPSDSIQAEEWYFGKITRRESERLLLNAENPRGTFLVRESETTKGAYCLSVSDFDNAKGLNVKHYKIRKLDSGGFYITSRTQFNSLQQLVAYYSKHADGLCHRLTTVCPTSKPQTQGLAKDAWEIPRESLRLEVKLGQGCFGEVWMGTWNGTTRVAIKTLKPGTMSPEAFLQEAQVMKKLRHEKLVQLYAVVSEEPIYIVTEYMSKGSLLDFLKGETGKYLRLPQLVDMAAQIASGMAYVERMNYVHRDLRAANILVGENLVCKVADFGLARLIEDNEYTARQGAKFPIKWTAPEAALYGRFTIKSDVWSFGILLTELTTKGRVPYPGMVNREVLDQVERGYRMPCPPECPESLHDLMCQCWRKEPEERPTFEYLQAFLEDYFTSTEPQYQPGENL
GSK 3α, sequence (P49840 whole entry): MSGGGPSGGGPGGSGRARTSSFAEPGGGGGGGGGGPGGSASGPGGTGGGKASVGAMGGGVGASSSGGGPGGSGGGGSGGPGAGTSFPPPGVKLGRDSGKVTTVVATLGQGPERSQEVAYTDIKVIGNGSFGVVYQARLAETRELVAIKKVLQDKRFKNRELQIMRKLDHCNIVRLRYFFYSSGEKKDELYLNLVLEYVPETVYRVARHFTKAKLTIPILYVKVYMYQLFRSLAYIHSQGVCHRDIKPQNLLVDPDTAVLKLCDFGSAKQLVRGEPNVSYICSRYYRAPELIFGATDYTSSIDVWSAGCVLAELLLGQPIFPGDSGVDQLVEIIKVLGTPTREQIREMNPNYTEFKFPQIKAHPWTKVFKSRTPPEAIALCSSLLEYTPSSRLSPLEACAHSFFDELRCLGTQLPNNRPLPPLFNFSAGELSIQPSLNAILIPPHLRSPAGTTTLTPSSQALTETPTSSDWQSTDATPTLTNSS

SMILES	IC50 (GSK 3α)	IC50 (c-Src)	IC50 (p38 MAPKα (MAPK14))	% β-catenin induction ([2]; test compound 1 μg/mL)	% β-catenin induction ([2]; test compound 5 μg/mL)	% β-catenin induction ([2]; test compound 10 μg/mL)	IC50 (Syk)	other results
C[C@@H]1C[C@H]2[C@@H]3CCC4=CC(=O)C=C[C@]4(C)[C@@]3(F)[C@@H](O)C[C@]2(C)[C@@]1(O)C(=O)CO [Dexamethasone]	–	–	–	–	–	–	–	IL-1β Anterior [1, 3]: 553.5 ± 155.7 pg/mL; IL-1β Posterior [1, 3]: 365.6 ± 178.2 pg/mL; IL-6 Anterior [1, 3]: 1000.7 ± 126.2 pg/mL; IL-6 Posterior [1, 3]: 1723.4 ± 224.1 pg/mL; MCP-1 Anterior [1, 3]: 156.3 ± 50.8 pg/mL; MCP-1 Posterior [1, 3]: 95.2 ± 32.5 pg/mL
COCCOCCOCCOc1cc(Nc2nccc(Oc3ccc(NC(=O)Nc4cc(C(C)(C)C)cc(NS(C)(=O)=O)c4OC)c4ccccc34)n2)cc(OC)c1Cl [Example 58, N-(5-(tert-Butyl)-3-(3-(4-((2-((4-chloro-3-methoxy-5-(2-(2-(2-methoxyethoxy)ethoxy)ethoxy)-phenyl)amino)pyrimidin-4-yl)oxy)naphthalen-1-yl)ureido)-2-methoxyphenyl)-methanesulfonamide]	4.34 µM	0.048 µM	0.181 µM	5%	2%	10%	0.461 µM	–
COCCOCCOCCOc1cc(Nc2nccc(Oc3ccc(NC(=O)Nc4cc(C(C)(C)C)cc(-c5nnco5)c4OC)c4ccccc34)n2)cc(OC)c1 [Example 59, 1-(5-(tert-Butyl)-2-methoxy-3-(1,3,4-oxadiazol-2-yl)phenyl)-3-(4-((2-((3-methoxy-5-(2-(2-(2-methoxyethoxy)ethoxy)ethoxy)phenyl)amino)pyrimidin-4-yl)oxy)naphthalen-1-yl)urea]	0.978 µM	0.028 µM	0.132 µM	14%	33%	28%	0.128 µM	–
C#Cc1cc(Nc2cc(Oc3ccc(NC(=O)Nc4cc(NS(C)(=O)=O)cc(C(C)(C)C)c4)c4ccccc34)ccn2)cc(C(=O)NCCN2CCOCC2)c1 [Example 65, 3-((4-((4-(3-(3-(tert-Butyl)-5-(methylsulfonamido)phenyl)ureido)naphthalen-1-yl)oxy)-pyridin-2-yl)amino)-5-ethynyl-N-(2-morpholinoethyl)benzamide]	7.4 µM	0.085 µM	0.326 µM	5%	2%	6%	1.29 µM	–
COc1cc(Nc2cc(Oc3ccc(NC(=O)Nc4cc(C(C)(C)C)cc(NS(C)(=O)=O)c4OC)c4ccccc34)ccn2)cc(C(=O)NCCCN2CCOCC2)c1 [Example 66, 3-((4-((4-(3-(5-(tert-Butyl)-2-methoxy-3-(methysulfonamido)phenyl)ureido)naphthalen-1-yl)oxy)pyridin-2-yl)amino)-5-methoxy-N-(3-morpholinopropyl)benzamide]	2.43 µM	0.023 µM	0.14 µM	0%	6%	3%	0.33 µM	Cell counts [1, 4]: 28.0 ± 7.6; IL-1β Anterior tissue [1, 4]: 342.7 ± 145.3 pg/mL; IL-1β Posterior tissue [1, 4]: 209.9 ± 59.0 pg/mL; cytokine levels in both the anterior and posterior segments of the eyes ([1]; rats treated with intravitreal endotoxin LPS, topical dosing): significantly reduced
C#Cc1cc(Nc2cc(Oc3ccc(NC(=O)Nc4cc(C(C)(C)C)cc(NS(C)(=O)=O)c4OC)c4ccccc34)ccn2)cc(C(=O)N[C@@H](C)COCCOCCOC)c1 [Example 67]	11.7 µM	0.056 µM	0.245 µM	3%	2%	−2%	1.17 µM	–
C#Cc1cc(Nc2cc(Oc3ccc(NC(=O)Nc4cc(C(C)(C)C)cc(NS(C)(=O)=O)c4OC)c4ccccc34)ccn2)cc(C(=O)N[C@H](C)COCCOCCOC)c1 [Example 68, (R)-3-((4-((4-(3-(5-(tert-Butyl)-2-methoxy-3-(methylsulfonamido)phenyl)ureido)-naphthalen-1-yl)oxy)pyridin-2-yl)amino)-5-ethynyl-N-(1-(2-(2-methoxyethoxy)ethoxy)-propan-2-yl)benzamide]	11.7 µM	0.07 µM	0.209 µM	2%	2%	−1%	1.17 µM	–
CCOc1c(NC(=O)Nc2ccc(Oc3ccnc(Nc4cc(OC)cc(OCCOCCOCCOC)c4)n3)c3ccccc23)cc(C(C)(C)C)cc1NS(C)(=O)=O [Example 69]	1.53 µM	0.013 µM	0.147 µM	10%	17%	25%	0.121 µM	–
COCCOCCOCCOc1cc(Nc2cc(Oc3ccc(NC(=O)Nc4cc(C(C)(C)C)cc(C(=O)NCCN(C)C)c4OC)c4ccccc34)ccn2)cc(OC)c1 [Example 76, 5-(tert-Butyl)-N-(2-(dimethylamino)ethyl)-2-methoxy-3-(3-(4-((2-((3-methoxy-5-(2-(2-(2-methoxyethoxy)ethoxy)ethoxy)phenyl)amino)pyridin-4-yl)oxy)naphthalen-1-yl)ureido)-benzamide]	4.79 µM	0.031 µM	0.159 µM	2%	−1%	−13%	0.035 µM	–
COCCOCCOCCOc1cc(Nc2cc(Oc3ccc(NC(=O)Nc4cc(C(C)(C)C)cc(C(=O)NC5COC5)c4OC)c4ccccc34)ccn2)cc(OC)c1 [Example 77, 5-(tert-Butyl)-2-methoxy-3-(3-(4-((2-((3-methoxy-5-(2-(2-(2-methoxyethoxy)ethoxy)ethoxy)-phenyl)amino)pyridin-4-yl)oxy)naphthalen-1-yl)ureido)-N-(oxetan-3-yl)benzamide]	3.54 µM	0.023 µM	0.216 µM	−4%	−1%	−1%	0.039 µM	–
COc1cccc(Nc2cc(Oc3ccc(NC(=O)Nc4cc(C(C)(C)C)cc(C(=O)NC5COC5)c4OC)c4ccccc34)ccn2)c1 [Example 81, 5-(tert-Butyl)-2-methoxy-3-(3-(4-((2-((3-methoxyphenyl)amino)pyridin-4-yl)oxy)naphthalen-1-yl)ureido)-N-(oxetan-3-yl)benzamide]	4.93 µM	0.058 µM	0.173 µM	4%	14%	13%	0.121 µM	–
COCC(=O)Nc1cc(Oc2ccc(NC(=O)Nc3cc(C(C)(C)C)nn3-c3ccc(C)cc3)c3ccccc23)ccn1 [Reference Compound, N-(4-(4-(3-(3-tert-butyl-1-p-tolyl-1H-pyrazol-5-yl)ureido)naphthalen-1-yloxy)pyridin-2-yl)-2-methoxyacetamide, reference compound]	–	–	–	–	–	–	–	number of individual kinase hits, S(1) (non-mutant kinases; 50 nM): 7; number of individual kinase hits, S(10) (non-mutant kinases; 50 nM, non-mutant kinases with % Ctrl <10): 32; number of individual kinase hits, S(35) (non-mutant kinases; 50 nM, non-mutant kinases with % Ctrl <35): 67; number of individual kinase hits, S(1) (non-mutant kinases; 500 nM): 45
